Laboratory results as given in article PMC5698552 (mBio, 2017).

Tests used:
[1] = biological target: T1, UDP-galactopyranose mutase (BcUGM) (Botrytis cinerea, UniProt A0A384JG93); test: product of purified recombinant BcUGM detected by HILIC and LC-MS/MS; assay type: biochemical
T1 construct: gene BCIN_05g00580

[2] = biological target: T1, UDP-galactopyranose mutase (BcUGM); test: enzyme kinetics with purified recombinant BcUGM, varying UDP-Galp, HPLC-UV and LC-MS product detection; assay type: biochemical

T1 sequence (A0A384JG93 entry or part of it): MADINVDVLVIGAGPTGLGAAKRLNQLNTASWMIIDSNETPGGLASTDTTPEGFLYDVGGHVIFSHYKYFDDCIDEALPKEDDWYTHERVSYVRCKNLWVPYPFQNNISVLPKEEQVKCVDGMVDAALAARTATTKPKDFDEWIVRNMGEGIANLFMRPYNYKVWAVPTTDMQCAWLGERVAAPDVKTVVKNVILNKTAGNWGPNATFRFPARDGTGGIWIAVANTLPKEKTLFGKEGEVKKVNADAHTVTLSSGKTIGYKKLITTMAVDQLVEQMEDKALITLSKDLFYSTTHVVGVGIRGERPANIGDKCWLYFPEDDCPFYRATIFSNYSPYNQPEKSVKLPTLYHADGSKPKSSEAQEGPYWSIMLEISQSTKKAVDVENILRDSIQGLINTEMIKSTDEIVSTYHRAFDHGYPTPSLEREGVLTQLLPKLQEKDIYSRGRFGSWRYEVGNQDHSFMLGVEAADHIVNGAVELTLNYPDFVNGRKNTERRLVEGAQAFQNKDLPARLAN

Ki [2]	SMILES	product of purified recombinant BcUGM detected by HILIC and LC-MS/MS [1]
–	O=c1ccn([C@@H]2O[C@H](COP(=O)(O)OP(=O)(O)O[C@H]3O[C@@H]([C@H](O)CO)[C@H](O)[C@H]3O)[C@@H](O)[C@H]2O)c(=O)[nH]1 [UDP-galactofuranose]	transforming UDP-galactopyranose to UDP-galactofuranose in the presence of NADPH and flavin adenine dinucleotide (FAD)
222 µM	C[C@H]1O[C@H](OP(=O)(O)OP(=O)(O)OC[C@H]2O[C@@H](n3ccc(=O)[nH]c3=O)[C@H](O)[C@@H]2O)[C@H](O)[C@@H](O)C1=O [UDP-KDG]	–
